Results as given in PubChem BioAssay (NCI).
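48-hour exposure; five concentrations; linearly interpolated endpoints. GI50 is the concentration that inhibits growth by half. TGI marks complete inhibition of growth.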 Where a SMILES comes first, the peptide text is derived from it. [ ]: non-standard residue; d: D form. The star is where a group is joined. X28 = COC1=CC(=O)N(C(=O)[C@@H](O*)C(C)C)[C@H]1Cc1ccccc1; Bn2Val = CC(C)[C@@H](C(=O)*)N(Cc1ccccc1)Cc1ccccc1; NMeV = CN[C@H](C(=O)O)C(C)C; dNMeA = CN[C@H](C)C(=O)O

What was measured:
Experiment in all cases: NCI tumour cell line growth inhibition, 48 h
MCF7 breast = test system: MCF7 breast
SF-539 CNS = test system: SF-539 CNS
SW-620 colon = test system: SW-620 colon
NCI/ADR-RES ovarian = test system: NCI/ADR-RES ovarian
IGROV1 ovarian = test system: IGROV1 ovarian
SR leukemia = test system: SR leukemia
SK-MEL-5 melanoma = test system: SK-MEL-5 melanoma
SK-MEL-2 melanoma = test system: SK-MEL-2 melanoma
OVCAR-4 ovarian = test system: OVCAR-4 ovarian
HT29 colon = test system: HT29 colon

Structure (SMILES) | TGI (MCF7 breast) [µM] | TGI (SF-539 CNS) [µM] | TGI (SW-620 colon) [µM] | TGI (NCI/ADR-RES ovarian) [µM] | TGI (IGROV1 ovarian) [µM] | TGI (SR leukemia) [µM] | TGI (SK-MEL-5 melanoma) [µM] | TGI (SK-MEL-2 melanoma) [µM] | TGI (OVCAR-4 ovarian) [µM] | TGI (HT29 colon) [µM] | GI50 (MCF7 breast) [µM] | GI50 (SF-539 CNS) [µM] | GI50 (SW-620 colon) [µM] | GI50 (NCI/ADR-RES ovarian) [µM] | GI50 (IGROV1 ovarian) [µM] | GI50 (SR leukemia) [µM] | GI50 (SK-MEL-5 melanoma) [µM] | GI50 (SK-MEL-2 melanoma) [µM] | GI50 (OVCAR-4 ovarian) [µM] | GI50 (HT29 colon) [µM]
COC1=CC(=O)N(C(=O)[C@@H](OC(=O)[C@@H](C)N(C)C(=O)[C@@H]2CCCN2C(=O)[C@H](C(C)C)N(C)C(=O)[C@@H](NC(=O)[C@H](C(C)C)N(Cc2ccccc2)Cc2ccccc2)C(C)C)C(C)C)[C@H]1Cc1ccccc1 (Bn2Val-V[NMeV]P[dNMeA]-X28) | > 100 | > 100 | > 100 | > 100 | > 100 | > 100 | > 100 | > 100 | > 100 | > 100 |  |  |  |  |  |  |  |  |  | 
c1ccc(C(c2cccc3c2ccc2ccccc23)C(c2ccccc2)c2cccc3c2ccc2ccccc23)cc1 (centres undefined) | > 100 | > 100 | > 100 | > 100 | > 100 | > 100 | > 100 | > 100 | > 100 | > 100 |  |  |  |  |  |  |  |  |  | 
C=CCNc1nc(O)c(/C=C2\C=Nc3ncccc32)s1 | > 100 | 2.06 | 9.25 | > 100 | > 100 | 88.3 | > 100 | 5.09 | 24.9 | > 100 | 2.2 | 0.524 | 2.13 | 5.05 | 2.86 | 0.408 | 2.86 | 2.23 | 3.03 | 3.05
c1ccc2[nH]c3c(N=NC4=NCCN4)c4ccccc4c-3nc2c1 | 11.4 | 20.2 | 13.6 | 20.1 | > 100 | > 100 | 15.9 |  | > 100 | 2.7 |  |  |  |  |  |  |  |  |  | 
Cc1ccc(/C(O)=C/c2nc3cccnc3[nH]c2=O)cc1 | > 100 | > 100 |  | > 100 | > 100 | > 100 | > 100 | > 100 | > 100 | > 100 |  |  |  |  |  |  |  |  |  | 
O=C(CNc1nccs1)Nn1cnc2ccc(S(=O)(=O)Nc3nccs3)cc2c1=O | > 100 | > 100 | > 100 | > 100 | > 100 | > 100 |  | > 100 | > 100 | > 100 |  |  |  |  |  |  |  |  |  | 
Cc1ccc2n(c1)cc(-c1ccc(/C=N/NC(=N)N/N=C/c3ccc(-c4cn5cc(C)ccc5[n+]4C)cc3)cc1)[n+]2C | > 100 | > 100 | > 100 | > 100 | > 100 | > 100 | > 100 |  | > 100 | > 100 |  |  |  |  |  |  |  |  |  | 
COc1cc(S(=O)(=O)Nc2ccc(-c3csc(N4C(=O)C(Cl)C4c4cccc(Oc5ccccc5)c4)n3)cc2)ccc1Cl (centres undefined) | > 100 | 29.6 | > 100 | > 100 | 7.45 | > 100 | > 100 | 76.7 | 18.1 | > 100 |  |  |  |  |  |  |  |  |  | 
C=CC(C)(C)C1(CC(OC)OC)C(=O)N(C)c2ccccc21 (centres undefined) | > 25 |  | > 25 | > 25 |  | > 25 | > 25 | > 25 | > 25 | > 25 |  |  |  |  |  |  |  |  |  | 
O=C1C(C(c2ccc([N+](=O)[O-])cc2)N2CCOCC2)=C(O)C(c2ccccc2)N1c1ccccc1 (centres undefined) | > 10 | > 10 | > 10 | > 10 | > 10 | > 10 | > 10 | > 10 | > 10 | > 10 |  |  |  |  |  |  |  |  |  | 
